Laboratory results reported in ChEMBL document CHEMBL4364283 (J Med Chem, 2019).
pIC50, pKd, pKi: −log10 of the molar value. Active and inactive are the calls of the source. The calls are words filed in the database; no cut-off is given here.

Experiments:
MV4-11 [1] = test: cells; conditions: Homo sapiens, MV4-11, 96 h
Menin [2] = molecular target: T1, Menin (Homo sapiens, UniProt O00255); test: Inhibition of FAM-probe binding to Menin (unknown origin) after 60 mins by fluorescence polarization competitive binding assay
T1 sequence (O00255 whole entry): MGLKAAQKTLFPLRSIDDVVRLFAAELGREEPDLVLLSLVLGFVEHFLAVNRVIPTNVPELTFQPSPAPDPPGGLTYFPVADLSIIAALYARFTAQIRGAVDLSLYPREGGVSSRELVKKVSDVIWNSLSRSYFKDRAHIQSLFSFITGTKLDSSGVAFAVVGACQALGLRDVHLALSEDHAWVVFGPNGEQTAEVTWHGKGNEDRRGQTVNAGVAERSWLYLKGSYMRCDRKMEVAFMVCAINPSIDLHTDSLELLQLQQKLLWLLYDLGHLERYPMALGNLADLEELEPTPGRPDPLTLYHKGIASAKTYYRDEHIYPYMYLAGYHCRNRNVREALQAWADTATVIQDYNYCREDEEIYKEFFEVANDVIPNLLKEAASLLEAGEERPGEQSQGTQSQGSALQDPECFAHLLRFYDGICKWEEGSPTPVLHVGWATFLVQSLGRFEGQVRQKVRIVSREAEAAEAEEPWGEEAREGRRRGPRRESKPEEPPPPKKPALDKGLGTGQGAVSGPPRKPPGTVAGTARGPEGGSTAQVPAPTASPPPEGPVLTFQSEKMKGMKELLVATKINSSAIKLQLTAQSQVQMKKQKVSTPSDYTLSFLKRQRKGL

MOLM-13 = test: Growth inhibition of human MOLM13 cells after 4 days by WST-8 assay; type: functional, cell-based; conditions: MOLM-13, 96 h
HL-60 = test: Growth inhibition of human HL60 cells after 4 days by WST-8 assay; type: functional, cell-based; conditions: HL-60, 96 h
Menin [3] = molecular target: T1, Menin; test: Binding affinity to human Menin expressed in Escherichia coli Rosetta2 (DE3) cells by isothermal titration calorimetry
[4] = Solubility of the compound; type: physicochemical
Mus musculus [5] = test: Downregulation of MEIS1 expression in tumors of mouse xenografted with human MV411 cells at 50 mg/kg , ip administered daily for 3 days and measured after 6 to 48 hrs by RT-qPCR analysis; type: functional, organism-based
MV4-11 [6] = test: Induction of differentiation in human MV4-11 cells assessed as increase in CD11b positive cells after 48 hrs by phycoerythrin staining-based flow cytometric analysis; type: functional, cell-based
[7] = molecular target: T2, Menin/Histone-lysine N-methyltransferase MLL (Homo sapiens) (UniProt O00255+Q03164); conditions: 100 nM
[8] = molecular target: T2, Menin/Histone-lysine N-methyltransferase MLL (Homo sapiens); conditions: 30 to 300 nM
Menin [9] = molecular target: T1, Menin
Mus musculus [10] = test: Downregulation of Hoxa9 expression in tumors of mouse xenografted with human MV411 cells at 50 mg/kg , ip administered daily for 3 days and measured after 6 to 48 hrs by RT-qPCR analysis; type: functional, organism-based
[11] = molecular target: T2, Menin/Histone-lysine N-methyltransferase MLL (Homo sapiens); conditions: 100 nM; remark: listed apart in the source
[12] = molecular target: T2, Menin/Histone-lysine N-methyltransferase MLL (Homo sapiens); conditions: 30 to 300 nM; remark: listed apart in the source
MV4-11 [13] = test: Induction of differentiation in human MV4-11 cells assessed as increase in CD11b positive cells at 0.03 to 3 uM after 24 hrs by phycoerythrin staining-based flow cytometric analysis; type: functional, cell-based
Menin [14] = molecular target: Menin (Homo sapiens, UniProt O00255); test: Inhibition of fluorescent probe binding to Menin (2 to 610 residues containing deletion from 460-519) (unknown origin) after 60 mins by fluorescence polarization competitive binding assay

T2 sequence (Q03164 1-2718 partner limits assumed, one chain of several): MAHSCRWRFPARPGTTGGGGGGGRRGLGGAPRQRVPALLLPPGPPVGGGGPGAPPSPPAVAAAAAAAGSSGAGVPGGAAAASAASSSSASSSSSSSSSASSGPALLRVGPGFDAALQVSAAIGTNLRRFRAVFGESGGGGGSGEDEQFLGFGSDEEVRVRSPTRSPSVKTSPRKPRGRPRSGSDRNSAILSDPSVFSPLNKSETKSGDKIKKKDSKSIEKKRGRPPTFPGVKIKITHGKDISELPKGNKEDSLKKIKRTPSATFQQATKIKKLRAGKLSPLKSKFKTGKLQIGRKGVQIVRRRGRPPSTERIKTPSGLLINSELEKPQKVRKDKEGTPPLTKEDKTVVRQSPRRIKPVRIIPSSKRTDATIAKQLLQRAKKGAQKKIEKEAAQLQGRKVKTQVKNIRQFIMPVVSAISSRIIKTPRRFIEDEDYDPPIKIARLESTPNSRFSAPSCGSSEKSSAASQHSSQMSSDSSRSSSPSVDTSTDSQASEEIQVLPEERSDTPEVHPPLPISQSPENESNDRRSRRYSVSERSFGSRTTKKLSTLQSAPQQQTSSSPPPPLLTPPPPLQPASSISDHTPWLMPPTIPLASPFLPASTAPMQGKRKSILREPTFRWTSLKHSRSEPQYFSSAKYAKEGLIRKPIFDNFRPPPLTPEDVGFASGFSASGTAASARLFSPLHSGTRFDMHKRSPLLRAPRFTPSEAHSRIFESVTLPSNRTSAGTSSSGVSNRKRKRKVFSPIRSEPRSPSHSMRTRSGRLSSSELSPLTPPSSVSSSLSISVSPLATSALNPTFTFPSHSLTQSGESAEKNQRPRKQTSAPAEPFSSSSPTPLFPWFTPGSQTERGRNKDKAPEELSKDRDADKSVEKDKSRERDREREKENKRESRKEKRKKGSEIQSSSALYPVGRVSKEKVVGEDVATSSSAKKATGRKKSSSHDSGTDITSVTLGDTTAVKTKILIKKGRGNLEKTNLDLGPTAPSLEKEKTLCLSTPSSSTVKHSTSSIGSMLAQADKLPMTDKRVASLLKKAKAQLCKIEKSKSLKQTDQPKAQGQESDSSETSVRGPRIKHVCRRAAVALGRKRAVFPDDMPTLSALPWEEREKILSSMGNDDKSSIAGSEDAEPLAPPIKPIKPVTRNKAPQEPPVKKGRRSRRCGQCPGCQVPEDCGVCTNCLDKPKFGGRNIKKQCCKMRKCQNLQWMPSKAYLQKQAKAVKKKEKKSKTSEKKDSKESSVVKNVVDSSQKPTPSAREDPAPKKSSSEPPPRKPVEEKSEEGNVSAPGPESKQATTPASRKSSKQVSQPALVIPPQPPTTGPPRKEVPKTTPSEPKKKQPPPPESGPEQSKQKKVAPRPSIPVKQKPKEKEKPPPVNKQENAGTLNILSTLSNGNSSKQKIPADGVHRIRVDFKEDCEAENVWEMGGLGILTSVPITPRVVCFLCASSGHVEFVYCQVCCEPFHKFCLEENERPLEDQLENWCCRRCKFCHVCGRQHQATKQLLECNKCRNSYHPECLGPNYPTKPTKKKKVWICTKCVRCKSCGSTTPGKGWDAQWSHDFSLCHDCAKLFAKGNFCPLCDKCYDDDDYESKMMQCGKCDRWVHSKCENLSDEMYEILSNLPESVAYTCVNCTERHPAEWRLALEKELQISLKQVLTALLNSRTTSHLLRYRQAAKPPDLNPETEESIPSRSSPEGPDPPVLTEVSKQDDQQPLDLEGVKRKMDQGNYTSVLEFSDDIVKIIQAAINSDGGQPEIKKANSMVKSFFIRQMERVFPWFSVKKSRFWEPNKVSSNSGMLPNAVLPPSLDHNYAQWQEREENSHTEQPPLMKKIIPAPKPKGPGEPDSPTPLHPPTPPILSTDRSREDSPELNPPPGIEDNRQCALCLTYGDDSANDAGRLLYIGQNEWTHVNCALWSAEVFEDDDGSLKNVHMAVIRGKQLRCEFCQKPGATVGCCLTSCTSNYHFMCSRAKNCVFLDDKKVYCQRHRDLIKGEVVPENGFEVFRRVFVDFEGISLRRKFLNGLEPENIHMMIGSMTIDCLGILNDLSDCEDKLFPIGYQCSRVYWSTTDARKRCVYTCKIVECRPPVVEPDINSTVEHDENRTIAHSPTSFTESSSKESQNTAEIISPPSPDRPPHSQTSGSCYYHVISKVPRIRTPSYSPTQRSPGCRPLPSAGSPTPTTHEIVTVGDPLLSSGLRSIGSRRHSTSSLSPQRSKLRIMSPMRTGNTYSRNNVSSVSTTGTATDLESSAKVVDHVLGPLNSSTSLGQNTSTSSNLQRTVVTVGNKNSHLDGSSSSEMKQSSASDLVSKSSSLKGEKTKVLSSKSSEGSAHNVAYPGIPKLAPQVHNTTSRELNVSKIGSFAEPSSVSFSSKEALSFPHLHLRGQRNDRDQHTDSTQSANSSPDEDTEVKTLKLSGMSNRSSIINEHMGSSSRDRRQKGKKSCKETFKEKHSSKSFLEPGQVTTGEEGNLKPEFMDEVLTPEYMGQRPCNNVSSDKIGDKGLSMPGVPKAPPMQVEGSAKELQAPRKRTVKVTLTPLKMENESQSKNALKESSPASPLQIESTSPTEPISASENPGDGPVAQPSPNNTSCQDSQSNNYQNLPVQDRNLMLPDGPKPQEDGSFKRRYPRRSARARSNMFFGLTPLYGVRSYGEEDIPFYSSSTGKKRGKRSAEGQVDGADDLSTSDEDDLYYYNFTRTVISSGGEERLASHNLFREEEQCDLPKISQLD
T2 sequence (Q03164 2719-3969 partner limits assumed, one chain of several): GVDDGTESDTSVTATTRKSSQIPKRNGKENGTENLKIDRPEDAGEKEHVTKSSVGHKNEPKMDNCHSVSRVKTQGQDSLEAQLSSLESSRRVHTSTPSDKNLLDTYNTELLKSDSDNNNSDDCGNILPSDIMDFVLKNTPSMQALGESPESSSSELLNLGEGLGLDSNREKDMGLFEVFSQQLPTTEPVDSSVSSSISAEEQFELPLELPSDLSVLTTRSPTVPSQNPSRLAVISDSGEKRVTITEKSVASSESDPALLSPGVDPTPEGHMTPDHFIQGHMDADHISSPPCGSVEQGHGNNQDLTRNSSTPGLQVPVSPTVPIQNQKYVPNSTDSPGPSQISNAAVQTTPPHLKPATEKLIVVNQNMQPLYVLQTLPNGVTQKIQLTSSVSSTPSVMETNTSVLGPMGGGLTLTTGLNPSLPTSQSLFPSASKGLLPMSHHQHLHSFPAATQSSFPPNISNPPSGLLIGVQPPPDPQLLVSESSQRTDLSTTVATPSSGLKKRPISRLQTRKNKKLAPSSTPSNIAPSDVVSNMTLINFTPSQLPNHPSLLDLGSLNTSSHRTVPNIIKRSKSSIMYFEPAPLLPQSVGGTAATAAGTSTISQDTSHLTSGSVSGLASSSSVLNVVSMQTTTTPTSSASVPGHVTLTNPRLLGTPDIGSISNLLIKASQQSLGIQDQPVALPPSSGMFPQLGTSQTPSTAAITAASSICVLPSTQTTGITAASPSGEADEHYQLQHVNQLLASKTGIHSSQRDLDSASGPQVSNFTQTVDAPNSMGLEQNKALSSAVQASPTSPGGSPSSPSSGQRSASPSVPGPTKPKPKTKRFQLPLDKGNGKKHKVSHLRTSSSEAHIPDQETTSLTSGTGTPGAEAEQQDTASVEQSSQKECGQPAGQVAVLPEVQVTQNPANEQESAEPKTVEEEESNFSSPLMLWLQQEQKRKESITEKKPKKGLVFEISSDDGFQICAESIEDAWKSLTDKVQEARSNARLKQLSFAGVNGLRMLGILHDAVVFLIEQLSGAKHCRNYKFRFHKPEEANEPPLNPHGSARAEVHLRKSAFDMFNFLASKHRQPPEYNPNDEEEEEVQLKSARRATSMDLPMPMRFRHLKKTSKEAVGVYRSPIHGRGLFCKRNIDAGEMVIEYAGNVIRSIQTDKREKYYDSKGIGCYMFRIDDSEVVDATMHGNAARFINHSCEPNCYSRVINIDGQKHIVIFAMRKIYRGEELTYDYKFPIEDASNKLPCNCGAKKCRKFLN

Row | SMILES | pIC50 (MV4-11 [1]) | pKi (Menin [2]) | pIC50 (Menin [2]) | further results
1 | CC(C)S(=O)(=O)c1ccc(N2CC(CN3CCC(C4(C5CCCC5)NCCc5ccccc54)CC3)C2)cc1 (configuration not stated) | 5.96 | 7.68 |  | 
2 | O=S(=O)(c1ccc(N2CC(CN3CCC(C4(C5CCCC5)NCCc5ccccc54)CC3)C2)cc1)C1CCCC1 (configuration not stated) | 6.05 | 8.34 | 7.77 | 
3 | O=S(=O)(c1ccncc1)c1ccc(N2CC(CN3CCC(C4(C5CCCC5)CN(CCN5CCOCC5)Cc5ccccc54)CC3)C2)cc1 (configuration not stated) | 5.81 | 8.57 |  | 
4 | N#Cc1ccc(N2CC(CN3CCC(C(C#N)(c4ccccc4)C4CCCC4)CC3)C2)cc1 (racemic) | 4.77 | 6.02 | 5.52 | 
5 | O=S(=O)(c1ccncc1)c1ccc(N2CC(CN3CCC(C4(C5CCCC5)CN(CC5CC5)Cc5ccccc54)CC3)C2)cc1 (configuration not stated) | 5.86 | 8.85 |  | 
6 | CN1Cc2ccccc2C(C2CCCC2)(C2CCN(CC3CN(c4ccc(S(=O)(=O)c5ccncc5)cc4)C3)CC2)C1 (configuration not stated) |  |  | 7.96 | pIC50 (MOLM-13): 5.37; pIC50 (HL-60): 5.60
7 | N#Cc1ccc(OCCN2CCC(C3(C4CCCC4)NCCc4ccccc43)CC2)cc1 (configuration not stated) | 5.74 | 5.26 | 4.67 | 
8 | N#Cc1ccc(N2CCC(CN3CCC(C4(C5CCCC5)NCCc5ccccc54)CC3)C2)cc1 (configuration not stated) | 5.62 | 7.57 | 7.06 | 
9 | N#Cc1ccc(N2CCCC(CN3CCC(C4(C5CCCC5)NCCc5ccccc54)CC3)C2)cc1 (configuration not stated) |  | 5.67 | 5.18 | 
10 | CCC(=O)O[C@H]1CCC[C@@H]1[C@](C#N)(c1ccccc1)C1CCN(CC2CN(c3ccc(C#N)cc3)C2)CC1 (mixture of isomers) | 5.66 | 8.01 | 7.48 | 
11 | O=S(=O)(c1ccncc1)c1ccc(N2CC(CN3CCC(C4(C5CCCC5)CNCc5ccccc54)CC3)C2)cc1 (configuration not stated) | 6.01 | 8.77 |  | 
12 | N#Cc1ccc(N2CCC(N3CCC(C4(C5CCCC5)NCCc5ccccc54)CC3)CC2)cc1 (configuration not stated) | 5.20 | 6.68 | 6.19 | 
13 | N#Cc1ccc(OCCCN2CCC(C3(C4CCCC4)NCCc4ccccc43)CC2)cc1 (configuration not stated) | 5.85 |  |  | 
14 | CC(=O)O[C@@H]1CCC[C@H]1[C@](C#N)(c1ccccc1)C1CCN(CC2CN(c3ccc(C#N)cc3)C2)CC1 (relative stereo) | 4.84 |  |  | 
15 | CC(C)N1Cc2ccccc2C(C2CCCC2)(C2CCN(CC3CN(c4ccc(S(=O)(=O)c5ccncc5)cc4)C3)CC2)C1 (configuration not stated) | 6.04 | 8.85 |  | 
16 | CCO[C@H]1CCC[C@@H]1[C@](C#N)(c1ccccc1)C1CCN(CC2CN(c3ccc(C#N)cc3)C2)CC1 (racemic) | 5.37 | 5.77 | 5.27 | 
17 | N#Cc1cc2cc(CN3CCC(Nc4ncnc5sc(CC(F)(F)F)cc45)CC3)c(O)cc2n1Cc1cn[nH]c1 |  |  |  | pKd (Menin [3]): 8.00
18 | O=S(=O)(c1ccc(N2CC(CN3CCC(C4(C5CCCC5)NCCc5ccccc54)CC3)C2)cc1)C1CCC1 (configuration not stated) | 5.77 | 7.96 |  | 
19 | CCS(=O)(=O)c1ccc(N2CC(CN3CCC(C4(C5CCCC5)NCCc5ccccc54)CC3)C2)cc1 (configuration not stated) | 5.68 | 8.00 | 7.47 | 

Row | SMILES | pIC50 (MV4-11 [1]) | pKi (Menin [2]) | pIC50 (Menin [2]) | further results
20 | CS(=O)(=O)c1ccc(N2CC(CN3CCC(C4(C5CCCC5)NCCc5ccccc54)CC3)C2)cc1 (configuration not stated) | 5.35 | 7.35 | 6.84 | 
21 | N#Cc1ccc(OCCCCN2CCC(C3(C4CCCC4)NCCc4ccccc43)CC2)cc1 (configuration not stated) | 6.30 | 5.89 | 5.30 | 
22 | O=S(=O)(c1ccncc1)c1ccc(N2CC(CN3CCC(C4(C5CCCC5)CN(Cc5ccncc5)Cc5ccccc54)CC3)C2)cc1 (configuration not stated) | 5.88 | 6.44 |  | 
23 | CNC(=O)O[C@H]1CCC[C@@H]1[C@](C#N)(c1ccccc1)C1CCN(CC2CN(c3ccc(C#N)cc3)C2)CC1 (mixture of isomers) | 6.52 | 8.57 | 7.96 | 
24 | O=S(=O)(c1ccncc1)c1ccc(N2CC(CN3CCC(C4(C5CCCC5)CN(C5CCC5)Cc5ccccc54)CC3)C2)cc1 (configuration not stated) | 6.05 | 8.70 |  | 
25 | O=S(=O)(c1ccncc1)c1ccc(N2CC(CN3CCC(C4(C5CCCC5)NCCc5ccccc54)CC3)C2)cc1 (configuration not stated) | 5.89 | 8.34 | 7.77 | solubility [4]: Soluble
26 | O=S(=O)(c1ccncc1)c1ccc(N2CC(CN3CCC(C4(C5CCCC5)CN(CC5COC5)Cc5ccccc54)CC3)C2)cc1 (configuration not stated) | 5.80 | 8.15 |  | 
27 | CC(=O)N[C@H]1CCC[C@@H]1[C@](C#N)(c1ccccc1)C1CCN(CC2CN(c3ccc(C#N)cc3)C2)CC1 (racemic) | 5.41 | 7.49 | 6.99 | 
28 | CC(=O)O[C@H]1CCC[C@@H]1[C@](C#N)(c1ccccc1)C1CCN(CC2CN(c3ccc(C#N)cc3)C2)CC1 (mixture of isomers) | 5.77 | 7.92 | 7.40 | 
29 | O=S(=O)(c1ccccc1)c1ccc(N2CC(CN3CCC(C4(C5CCCC5)NCCc5ccccc54)CC3)C2)cc1 (configuration not stated) | 6.30 | 8.25 | 7.70 | 
30 | CNC(=O)O[C@H]1CCC[C@@H]1[C@]1(C2CCN(CC3CN(c4ccc(S(=O)(=O)c5ccncc5)cc4)C3)CC2)CN(C)Cc2ccccc21 (mixture of isomers) |  | > 9.00 | 8.30 | Activity (Mus musculus [5]): Active; Activity (MV4-11 [6]): Dose-dependent effect; inhibition [7]: Active; inhibition [8]: Active; pKd (Menin [9]): 8.85; Activity (Mus musculus [10]): Active; inhibition [11]: Active; inhibition [12]: Active; Activity (MV4-11 [13]): Active
31 | O=S(=O)(c1ccc(N2CC(CN3CCC(C4(C5CCCC5)NCCc5ccccc54)CC3)C2)cc1)C1CCCCC1 (configuration not stated) | 5.96 | 8.62 | 8.00 | 
32 | CCN1Cc2ccccc2C(C2CCCC2)(C2CCN(CC3CN(c4ccc(S(=O)(=O)c5ccncc5)cc4)C3)CC2)C1 (configuration not stated) | 6.08 | 9.00 |  | 
33 | Cc1c(CN2CCC(Nc3ncnc4sc(CC(F)(F)F)cc34)CC2)ccc2c1cc(C#N)n2Cc1cn[nH]c1 |  |  |  | pKd (Menin [3]): 8.00
34 | O=S(=O)(c1ccc(N2CC(CN3CCC(C4(C5CCCC5)NCCc5ccccc54)CC3)C2)cc1)C1CC1 (configuration not stated) | 5.92 | 8.15 |  | 
35 | N#Cc1ccc(N2CC(CN3CCC(C4(C5CCCC5)NCCc5ccccc54)CC3)C2)cc1 (configuration not stated) | 5.89 | 7.96 |  | 
36 | CCCC(=O)O[C@H]1CCC[C@@H]1[C@](C#N)(c1ccccc1)C1CCN(CC2CN(c3ccc(C#N)cc3)C2)CC1 (mixture of isomers) | 4.97 | 6.46 | 5.96 | 
37 | COC(=O)N[C@H]1CCC[C@@H]1[C@](C#N)(c1cccc(F)c1)C1CCN(CC2CN(c3ccc(S(=O)(=O)C4CN(C(=O)/C=C/CN(C)C)C4)cc3)C2)CC1 |  |  |  | pIC50 (Menin [14]): 8.52
